According to patent publication US7884070B2, “Linear cationic peptides having antibacterial and/or antifungal properties” (priority 2002, dated 2011):
Where a SMILES comes first, the peptide text is derived from it.

Legend:
[1] = system: Streptococcus pneumoniae ATCC 6303; assay type: cell-based
[2] = system: C. neoformans Cn52D; assay type: cell-based, Cryptococcus neoformans
Description: D. Determination of the miminimal inhibitory concentration (MIC) in liquid medium for the Filamentous Fungi and Yeast
Peptide concentrations tested: from 0.2 μg/ml to 100 μg/ml.

[3] = system: Staphylococcus aureus ATCC 25923; assay type: cell-based
[4] = system: Haemophilus influenzae ATCC 49247; assay type: cell-based
[5] = system: Salmonella typhimurium ATCC 14028; assay type: cell-based
[6] = system: Serratia marcescens ATCC 8100; assay type: cell-based
[7] = system: Streptococcus pneumoniae ATCC 49619; assay type: cell-based
[8] = system: Neisseria sica ATCC 9913; assay type: cell-based
[9] = system: Enterococcus faecalis ATCC 19433; assay type: cell-based
[10] = system: Micrococcus luteus ATCC 9341; assay type: cell-based
[11] = system: Enterococcus faecalis ATCC 29212; assay type: cell-based
[12] = system: Shigella sonnei ATCC 25931
Description: The MIC values were determined by the method of microdilution in liquid medium (NCCLS M7A5) for all of the bacterial species on 96-well polystyrene plates.
The culture medium was Mueller-Hinton broth (MHB) (pH≈7.2-7.4) with supplements according to the bacterial species studied: • MHB alone for the non-exigent species, • MHB+3% lysed horse blood for the streptococci, Listeria and Neisseria, • MHB+hemin 15 mg/l+NAD 15 mg/l+yeast extract 5 g/l for Haemophilus.
The bacterial inoculum was prepared from re-isolation performed on: • CLED agar: non-exigent strains, • blood agar+5% goat blood: streptococci, Listeria and Neisseria • chocolate agar+5% goat blood: Haemophilus, Neisseria.
The final inoculum was at ≈5·10^5 cfu/ml (colony forming units). 50 μl of bacterial inoculum was distributed per well containing an equal volume of the peptide solution diluted by half in the appropriate culture medium depending on the bacterial species (0.5 to 512 μg/ml). The cultures were incubated at 35° C. in ambient air for 16 to 20 hours (20 to 24 h for the streptococci).
Determination of the MBC values was performed after inhibition and reading of the MIC plates:
A volume of 3 μl of each concentration of antibiotic was deposited on the agar media: • MH: for the non-exigent strains, • MH+5% sheep blood: for the streptococci, Listeria, Bacillus and Neisseria, • HTM: for the Haemophilus.
The agars were incubated for 18 h at 35° C. in atmosphere: • in ambient air: for the non-exigent strains, • with 5-6% of CO2: for the streptococci, Listeria, Haemophilus and Neisseria.
The MBC is the lowest concentration of antibiotic that inhibits all bacterial growth on the transplant agar (<0. 1% of survivors).

[13] = system: Enterobacter aerogenes ATCC 13048; assay type: cell-based
[14] = system: Enterococcus faecium ATCC 35667; assay type: cell-based
[15] = system: Enterobacter cloacae ATCC 23355; assay type: cell-based
[16] = system: Proteus vulgaris ATCC 13315; assay type: cell-based
[17] = system: Citrobacter freundii ATCC 8090; assay type: cell-based
[18] = In vivo toxicity: maximal tolerated dose (MTD); conditions: mouse, female OFI mice, intravenous perfusion approx. 15 minutes, 28 days after an injection
Description: The maximal tolerated dose (MTD) for each peptide was determined on female OFI mice at 28 days after an injection. The MTD was defined as the maximal nonlethal dose that could be injected. The peptides were administered by the intravenous route as a perfusion of approximately 15 minutes duration. The injection volume was 10 μl/g, the perfusion rate was 1.2 ml/hour and the excipient was a solution of NaCl at 0.8%.

[19] = system: Klebsiella pneumoniae ATCC 13883; assay type: cell-based
[20] = system: Staphylococcus epidermidis ATCC 12228; assay type: cell-based
[21] = system: Listeria monocytogenes ATCC 19115; assay type: cell-based
[22] = system: Bacillus cereus ATCC 11778; assay type: cell-based
[23] = system: Streptococcus agalactiae ATCC 13813; assay type: cell-based
[24] = system: Enterobacter aerogenes clinical strains; assay type: cell-based
[25] = system: Escherichia coli ATCC 25922; assay type: cell-based
[26] = system: Escherichia coli ATCC 35218; assay type: cell-based
[27] = system: Staphylococcus aureus ATCC 14154; assay type: cell-based
[28] = system: Pseudomonas aeruginosa ATCC 27853; assay type: cell-based
[29] = system: Streptococcus pyogenes ATCC 19615; assay type: cell-based
[30] = in vitro; conditions: human, human plasma
Description: The stability was determined at 37° C. After 0, 0.5, 1, 2, 4 and 6 hours, 3×200 μl were collected and added to 10 μl of internal standard (peptide no. 1) at 500 μM in water, to which 800 μl of 0.1% trifluoroacetic acid (TFA) in water was added. A volume of 1 ml of this mixture was deposited on resin C2 (EC) that had previously been equilibrated with 1 ml of 0.1% TFA in water, 1 ml of 0.1% TFA in acetonitrile and 1 ml of 0.1% TFA in water. After two washings with 1 ml of 0.1% TFA in water, the elution of peptide and of its metabolites was induced by 1 ml of 0.1% TFA in methanol. This was then dried under a stream of air and taken up in 200 μl of 0.1% TFA in water. A volume of 100 μl was analyzed by HPLC on a Luna C1 8(2) column, 3 μg, 4.6×100 mm (Phenomenex) with 0.1% TFA in water as solvent A and 0.1% TFA in acetonitrile as solvent B. A gradient of 15-45% of B in 12 minutes was used for the elution with a flow rate of 1.2 ml/min; detection was performed at 214 nm.

[31] = system: Acinetobacter baumanii ATCC 19606; assay type: cell-based
[32] = system: Bacillus subtilis ATCC 6633; assay type: cell-based
[33] = system: Acinetobacter baumanii clinical strains; assay type: cell-based
Description: A volume of 3 μl of each concentration of antibiotic was deposited on the agar media: • MH: for the non-exigent strains, • MH+5% sheep blood: for the streptococci, Listeria, Bacillus and Neisseria, • HTM: for the Haemophilus. […]

[34] = system: Shigella flexneri ATCC 112022

CC(C)C[C@H](NC(=O)[C@H](CCCCN)NC(=O)[C@H](C)NC(=O)[C@H](CC(C)C)NC(=O)[C@@H](N)CCCCN)C(=O)N[C@@H](C)C(=O)N[C@@H](CCCCN)C(=O)N[C@@H](CCCCN)C(=O)N[C@@H](CC(C)C)C(=O)N[C@@H](C)C(=O)N[C@@H](CCCCN)C(=O)N[C@@H](CC(C)C)C(=O)N[C@@H](C)C(=O)N[C@@H](CCCCN)C(=O)N[C@@H](CCCCN)C(=O)N[C@@H](Cc1c[nH]cn1)C(=O)N[C@@H](CC(C)C)C(=O)N[C@@H](CCCCN)C(=O)N[C@@H](CCCCN)C(=O)N[C@@H](Cc1c[nH]cn1)C(=O)N[C@@H](CC(C)C)C(=O)N[C@@H](CCCCN)C(=O)N[C@@H](CCCCN)C(=O)N[C@@H](Cc1c[nH]cn1)C(=O)N[C@@H](CC(C)C)C(=O)N[C@@H](CCCCN)C(=O)O [Peptide 2] (H-KLAKLAKKLAKLAKKHLKKHLKKHLK-OH; N-terminus and C-terminus assumed)
256 µg/mL: MBC [7]
64 µg/mL: MIC [9] | MBC [27]
4 µg/mL: MBC [5] | MIC [5] | MBC [10] | MIC [10] | MBC [16] | MIC [16]
8 µg/mL: MBC [17] | MIC [17] | MBC [22] | MIC [22] | MBC [23] | MIC [23] | MBC [24] | MBC [28] | MIC [28] | MBC [29] | MIC [29] | MBC [32] | MIC [32]
128 µg/mL: MBC [1] | MBC [9]
16 µg/mL: MIC [3] | MIC [7] | MBC [13] | MIC [13] | MIC [14]
1.56 µg/mL: MIC [2]
>512 µg/mL: MBC [6] | MIC [6]
13.5 mg/kg: MTD at 28 days [18]
32 µg/mL: MIC [1] | MBC [3] | MBC [4] | MIC [4] | MBC [11] | MIC [11] | MBC [14] | MBC [19] | MIC [19] | MIC [27]
0.5 µg/mL: MBC [8] | MIC [8]
2 µg/mL: MBC [12] | MIC [12] | MBC [15] | MIC [15] | MBC [20] | MIC [20] | MBC [21] | MIC [21] | MBC [25] | MIC [25] | MBC [26] | MIC [26] | MBC [31] | MIC [31] | MIC [33] | MBC [34] | MIC [34]
≤ 41%: metabolised at 6 h, 50 µM [30]
